Data reported in ChEMBL document CHEMBL3611997, “4-Fluoro-3',4',5'-trimethoxychalcone as a new anti-invasive agent. From discovery to initial validation in an in vivo metastasis model” (Eur J Med Chem, 2015).
Converted amounts (≈) assume the structure as drawn. The source made the active and inactive calls. The calls are words filed in the database; no cut-off is given here.

What was measured:
[1] = Antiinvasive activity in human MCF7/6 cells assessed as Cmin for progressive occupation of chicken precultured heart tissue fragments after 8 days by chick heart invasion assay; assay type: functional
[2] = system: MCF7/6; assay: Antiinvasive activity in human MCF7/6 cells assessed as Cmin for progressive occupation of chicken precultured heart tissue fragments at 0.01 to 10 umol/L after 8 days by chick heart invasion assay; assay type: functional, cell-based
[3] = system: SK-OV-3; assay: Antiinvasive activity in human in SKOV3 cells assessed as reduction of amount of cells present on filter at 0.1 umol/L after 24 hrs by matrigel invasion assay (reference value: 100%); assay type: functional; design: scale not given: the % may be the effect or the level left
[4] = system: SK-OV-3; assay: Antiinvasive activity in human in SKOV3 cells assessed as reduction of amount of cells present on filter at 1 umol/L after 24 hrs by matrigel invasion assay (reference value: 100%); assay type: functional; design: scale not given: the % may be the effect or the level left
[5] = Antiinvasive activity in human in BLM cells assessed as reduction of amount of cells present on filter at 1 umol/L after 24 hrs by matrigel invasion assay (reference value: 100%); assay type: functional; design: scale not given: the % may be the effect or the level left
[6] = Antiinvasive activity in human in BLM cells assessed as reduction of amount of cells present on filter at 100 umol/L after 24 hrs by matrigel invasion assay (reference value: 100%); assay type: functional; design: scale not given: the % may be the effect or the level left
[7] = Aqueous solubility of the compound in PBS at pH 7.4 at 200 umol/L; assay type: physicochemical
[8] = Aqueous solubility of the compound in simulated gastric fluid at 200 umol/L; assay type: physicochemical
[9] = Half life of the compound in PBS at pH 7.4 at 1 umol/L; assay type: ADME
[10] = Half life of the compound in simulated intestinal fluid at 1 umol/L; assay type: ADME
[11] = Half life in human blood at 1 umol/L; assay type: ADME, tissue-based
[12] = Protein binding in human plasma at 10 umol/L; assay type: ADME, cell-free; details: read-out: PPB (converted)
[13] = Protein binding in human plasma assessed as recovery at 10 umol/L; assay type: ADME, cell-free; details: read-out: Drug recovery
[14] = target: CYP2D6 (Homo sapiens, UniProt P10635); assay: Inhibition of CYP2D6 (unknown origin) at 10 umol/L; assay type: ADME
[15] = Intrinsic clearance in human liver S9 fraction at 0.1 umol/L; assay type: ADME, subcellular; details: read-out: CLH
[16] = Intrinsic clearance in Sprague-Dawley rat liver microsomes at 0.1 umol/L; assay type: ADME; details: read-out: CLH
[17] = Permeability across apical to basolateral side of human Caco2 cells assessed as compound recovery at 10 umol/L at pH 7.4; assay type: ADME, cell-based; details: Caco-2, pH 7.4, read-out: Drug recovery
[18] = Permeability across basolateral to apical side of human Caco2 cells at 10 umol/L at pH 7.4; assay type: ADME, cell-based; details: Caco-2, pH 7.4, read-out: permeability
[19] = Permeability across basolateral to apical side of human Caco2 cells assessed as compound recovery at 10 umol/L at pH 7.4; assay type: ADME, cell-based; details: Caco-2, pH 7.4, read-out: Drug recovery
[20] = Toxicity in human HepG2 cells assessed as cell viability at 0.1 umol/L; assay type: cell-based; details: read-out: Activity
[21] = system: Mus musculus; assay: Toxicity in Swiss nu/nu mouse assessed as histological anomalies in liver at 1.6 to 160 mg/kg, ip administered three times a week for two-week period measured on day 15; assay type: organism-based; details: in vivo
[22] = system: Mus musculus; assay: Toxicity in Swiss nu/nu mouse assessed as histological anomalies in kidney at 1.6 to 160 mg/kg, ip administered three times a week for two-week period measured on day 15; assay type: organism-based; details: in vivo
[23] = system: Mus musculus; assay: Toxicity in Swiss nu/nu mouse assessed as histological anomalies in spleen at 1.6 to 160 mg/kg, ip administered three times a week for two-week period measured on day 15; assay type: organism-based; details: in vivo
[24] = system: Mus musculus; assay: Toxicity in Swiss nu/nu mouse assessed as hematological anomalies by measuring AST level at 16 mg/kg, ip administered three times a week for two-week period measured on day 15 (reference value: 254.2 +/- 144.6 IU/L); assay type: organism-based; details: in vivo
[25] = system: Mus musculus; assay: Toxicity in Swiss nu/nu mouse assessed as hematological anomalies by measuring AST level at 160 mg/kg, ip administered three times a week for two-week period measured on day 15 (reference value: 254.2 +/- 144.6 IU/L); assay type: organism-based; details: in vivo
[26] = system: Mus musculus; assay: Toxicity in Swiss nu/nu mouse assessed as hematological anomalies by measuring ALT level at 1.6 mg/kg, ip administered three times a week for two-week period measured on day 15 (reference value: 29.6 +/- 5.6 IU/L); assay type: organism-based; details: in vivo
[27] = system: Mus musculus; assay: Toxicity in Swiss nu/nu mouse assessed as hematological anomalies by measuring ALT level at 16 mg/kg, ip administered three times a week for two-week period measured on day 15 (reference value: 29.6 +/- 5.6 IU/L); assay type: organism-based; details: in vivo
[28] = system: Mus musculus; assay: Toxicity in Swiss nu/nu mouse assessed as hematological anomalies by measuring ALT level at 160 mg/kg, ip administered three times a week for two-week period measured on day 15 (reference value: 29.6 +/- 5.6 IU/L); assay type: organism-based; details: in vivo
[29] = system: Mus musculus; assay: Toxicity in Swiss nu/nu mouse assessed as hematological anomalies by measuring creatinine level at 1.6 mg/kg, ip administered three times a week for two-week period measured on day 15 (reference value: 0.29 +/- 0.02 mg/dL); assay type: organism-based; details: in vivo
[30] = system: Mus musculus; assay: Toxicity in Swiss nu/nu mouse assessed as hematological anomalies by measuring creatinine level at 160 mg/kg, ip administered three times a week for two-week period measured on day 15 (reference value: 0.29 +/- 0.02 mg/dL); assay type: organism-based; details: in vivo
[31] = Antimetastasis activity against human MCF7/6 cells xenografted in Swiss nu/nu mouse assessed as increase of survival time at 160 mg/kg, ip administered thrice a week relative to control; assay type: functional
[32] = system: MCF7/6; assay: Inhibition of cell migration in human MCF7/6 cells at 0.01 to 10 umol/L after 24 hrs by wound scratch assay; assay type: functional, cell-based
[33] = Cytotoxicity against human MCF7/6 cells assessed as reduction of mitochondrial activity at 0.01 to 100 umol/L after 6 days by MTT assay; assay type: cell-based; details: mcf7/6, 144 h
[34] = Cytotoxicity against human MCF7/6 cells assessed as reduction of cellular protein content at 0.01 to 100 umol/L after 6 days by SRB assay; assay type: cell-based; details: mcf7/6, 144 h
[35] = Cytotoxicity against human MCF7/6 cells assessed as reduction of mitochondrial activity at 10 to 100 umol/L after 8 days by MTT assay; assay type: cell-based; details: mcf7/6, 192 h
[36] = system: MCF10; assay: Cytotoxicity against human MCF10 cells assessed as reduction of mitochondrial activity at 0.01 to 100 umol/L after 6 days by MTT assay; assay type: cell-based; details: mcf10, 144 h
[37] = system: MDA-MB-231; assay: Cytotoxicity against human MDA-MB-231 cells expressing GFP assessed as reduction of mitochondrial activity at 0.01 to 100 umol/L after 6 days by MTT assay; assay type: cell-based; details: mda-mb-231, 144 h
[38] = system: MDA-MB-231; assay: Cytotoxicity against human MDA-MB-231 cells expressing GFP assessed as reduction of cellular protein content at 0.01 to 100 umol/L after 6 days by SRB assay; assay type: cell-based; details: mda-mb-231, 144 h
[39] = target: Vascular endothelial growth factor receptor 2 (Homo sapiens) (UniProt P35968); assay: Inhibition of human KDR using and Ulight-CAGAGAIETDKEYYTVKD as substrate at 0.1 umol/L after 1 hr by FRET assay
Vascular endothelial growth factor receptor 2 (Homo sapiens), sequence (P35968 whole entry): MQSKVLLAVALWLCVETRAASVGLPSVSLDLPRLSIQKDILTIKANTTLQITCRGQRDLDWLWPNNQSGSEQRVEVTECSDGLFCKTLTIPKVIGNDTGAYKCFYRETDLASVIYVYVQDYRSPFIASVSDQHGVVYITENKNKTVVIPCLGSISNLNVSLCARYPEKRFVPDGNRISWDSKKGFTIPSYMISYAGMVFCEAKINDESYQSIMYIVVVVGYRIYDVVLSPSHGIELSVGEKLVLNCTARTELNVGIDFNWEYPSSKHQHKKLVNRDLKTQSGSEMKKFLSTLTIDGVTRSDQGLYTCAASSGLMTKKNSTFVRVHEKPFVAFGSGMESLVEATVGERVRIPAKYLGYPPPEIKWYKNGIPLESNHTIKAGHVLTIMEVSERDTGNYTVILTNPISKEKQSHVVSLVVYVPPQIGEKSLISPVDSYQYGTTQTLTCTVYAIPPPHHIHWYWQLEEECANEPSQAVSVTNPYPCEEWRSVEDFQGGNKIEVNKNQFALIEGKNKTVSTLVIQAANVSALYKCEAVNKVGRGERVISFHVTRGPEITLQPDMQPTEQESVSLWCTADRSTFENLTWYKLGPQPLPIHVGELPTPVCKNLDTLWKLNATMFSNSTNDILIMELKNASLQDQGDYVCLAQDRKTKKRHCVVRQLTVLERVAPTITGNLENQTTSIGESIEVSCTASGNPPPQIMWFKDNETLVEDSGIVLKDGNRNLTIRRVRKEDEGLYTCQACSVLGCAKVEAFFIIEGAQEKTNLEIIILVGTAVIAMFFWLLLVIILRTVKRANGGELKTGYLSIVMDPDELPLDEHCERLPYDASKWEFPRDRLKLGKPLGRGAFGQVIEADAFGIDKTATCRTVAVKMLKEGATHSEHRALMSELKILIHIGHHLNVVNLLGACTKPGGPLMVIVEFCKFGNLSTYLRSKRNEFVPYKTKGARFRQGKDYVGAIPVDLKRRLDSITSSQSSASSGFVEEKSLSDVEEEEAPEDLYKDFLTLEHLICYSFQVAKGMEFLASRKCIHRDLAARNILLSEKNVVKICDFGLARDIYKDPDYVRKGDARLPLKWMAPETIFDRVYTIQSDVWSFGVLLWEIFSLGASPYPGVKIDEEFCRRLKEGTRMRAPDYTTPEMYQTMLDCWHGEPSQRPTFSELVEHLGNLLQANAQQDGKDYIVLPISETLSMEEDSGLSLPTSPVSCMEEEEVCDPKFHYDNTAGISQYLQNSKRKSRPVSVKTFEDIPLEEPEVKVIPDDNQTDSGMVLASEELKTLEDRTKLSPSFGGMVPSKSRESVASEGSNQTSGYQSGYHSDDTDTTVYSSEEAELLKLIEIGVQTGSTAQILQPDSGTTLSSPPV

CYP2D6, sequence (P10635 whole entry): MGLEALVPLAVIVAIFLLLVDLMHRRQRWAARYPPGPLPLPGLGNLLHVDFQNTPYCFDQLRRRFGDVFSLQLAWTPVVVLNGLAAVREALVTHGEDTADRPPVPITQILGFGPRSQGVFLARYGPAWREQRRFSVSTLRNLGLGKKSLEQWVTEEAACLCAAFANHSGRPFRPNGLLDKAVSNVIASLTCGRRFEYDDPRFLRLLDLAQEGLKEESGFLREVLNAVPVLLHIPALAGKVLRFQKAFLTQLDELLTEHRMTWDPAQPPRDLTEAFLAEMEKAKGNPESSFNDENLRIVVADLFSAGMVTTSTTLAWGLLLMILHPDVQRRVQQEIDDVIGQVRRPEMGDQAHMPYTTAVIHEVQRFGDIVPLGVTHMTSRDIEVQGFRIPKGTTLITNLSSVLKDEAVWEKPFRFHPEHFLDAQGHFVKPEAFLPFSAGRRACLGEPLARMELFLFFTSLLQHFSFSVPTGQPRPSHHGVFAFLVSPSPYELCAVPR

**Q.** What does the source list for `COc1cc(C(=O)/C=C/c2ccc(F)cc2)cc(OC)c1OC`?
**A.** Cmin [1]: 0.01 µmol/L; Activity [2]: Active; Activity [3]: 85%; Activity [4]: 18%; Activity [5]: 33%; Activity [6]: 2%; solubility at 200 µM [7]: 2.4 µM (≈ 0.759 µg/mL); solubility at 200 µM [8]: 9.1 µM (≈ 2.88 µg/mL); half-life at 1 µM [9]: > 4 h; half-life at 1 µM [10]: > 4 h; half-life at 1 µM [11]: 0.167 h; fraction unbound at 10 µM [12]: 0.01; recovery at 10 µM [13]: 90%; inhibition at 10 µM [14]: 18.9%; microsomal CLint at 0.1 µM [15]: 57.3 µL/min/mg; microsomal CLint at 0.1 µM [16]: 339 µL/min/mg; recovery at 10 µM [17]: 17%; Papp B→A at 10 µM [18]: 4.9 ×10⁻⁶ cm/s; recovery at 10 µM [19]: 66%; viability at 0.1 µM [20]: 93.7%; Activity [21]: Non-toxic; Activity [22]: Non-toxic; Activity [23]: Non-toxic; Activity [24]: 167.5 IU/L; Activity [25]: 207.8 IU/L; Activity [26]: 30.5 IU/L; Activity [27]: 28.1 IU/L; Activity [28]: 33.2 IU/L; Activity [29]: 0.22 mg/dL; Activity [30]: 0.28 mg/dL; Survival [31]: 34 days; inhibition [32]: inactive; Activity [33]: Non-toxic; Activity [34]: Non-toxic; Activity [35]: Toxic; Activity [36]: Non-toxic; Activity [37]: Non-toxic; Activity [38]: Non-toxic; inhibition [39]: -3.5%
